Measured values taken from patent USRE48461E1, “Modulation of androgen receptor expression” (Ionis Pharmaceuticals, Inc., priority 2012, dated 2021).
Oligonucleotides are written 5' to 3', each unit as a sugar letter and its base; * is a phosphorothioate linkage, no mark a phosphodiester; rarer units and linkages stand in square brackets, end groups in braces. Plain capitals give the bases only. k = constrained ethyl (cEt); [5mC] = 5-methylcytosine; d = 2'-deoxy (DNA)

Columns and labels:
Type in all cases: cell-based, human
KLK2 mRNA = KLK2 mRNA (AR target gene) in C4-2B MR cells
C4-2B MR cells = test: Proliferation of MDV3100-resistant C4-2B cells (CellTiter 96); conditions: 6 days
How it was run: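 Antisense oligonucleotides were added to the culture medium at 0.04, 0.20, 1.00 and 5.00 μM, with a non-targeting oligonucleotide as negative control. After 6 days of treatment, proliferation was read with CellTiter 96 AQueous One. Values are percent inhibition relative to untreated cells.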

[1] = system: prostate-specific antigen (PSA) mRNA; test: PSA mRNA levels in LMR20 cells; conditions: for PSA mRNA levels in LMR20 cells: with or without DHT/R1881; for PSA mRNA levels (% baseline value) after treatment with DHT / PSA mRNA levels (% baseline value) after treatment with R1881 / PSA mRNA levels (% baseline value) of cells without AR agonist treatment: LMR20 cells; for PSA mRNA levels (% baseline value) after treatment with DHT: DHT 10 nM 72 hrs; for PSA mRNA levels (% baseline value) after treatment with R1881: R1881 10 nM 72 hrs; for PSA mRNA levels (% baseline value) of cells without AR agonist treatment: no AR agonist
Method: LMR20 cells were plated at 1,500 cells per well in phenol red-free medium with CSS. […] Results are presented in Tables 43-45 as mRNA levels expressed as a percentage of the baseline values. mRNA levels may be lowered or increased after treatment.

AR mRNA [2] = test: Time-course AR mRNA expression in C4-2B cells (8, 24, 48 hours); conditions: for Percent expression of AR compared to the control group in 8 hours / Percent expression of AR compared to the control group in 24 hours / Percent expression of AR compared to the control group in 48 hours: C4-2B cells
Method: C4-2B cells were plated at 1,000 cells per well in complete medium. […] After a treatment period of 8 hours, 24 hours, and 48 hours, AR expression was measured with primer probe set hAR-LTS00943.

AR V7 variant mRNA = test: AR V7 variant RNA in 22RV1 cells; conditions: 48 hrs
TMPRSS2 mRNA = test: TMPRSS2 expression in C4-2B cells (Example 30); conditions: 48 hrs
How it was run: (§1)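 C4-2B cells were plated at 1,000 cells per well in complete medium, or at 2,000 cells per well in CSS medium with 1 nM DHT. ISIS 549148 served as the negative control. AR, PSA and TMPRSS2 RNA levels were measured after 48 hrs.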

AR mRNA [3] = test: AR RNA expression in C4-2B cells (complete, CSS+DHT medium; Example 30); conditions: 48 hrs
How it was run: as §1

LNCaP cells = test: LNCaP cell proliferation, ASO in combination with MDV3100 (Example 20); conditions: Homo sapiens, LNCaP, read-out: inhibited proliferation, MDV3100 with control oligonucleotide ISIS 549148
Method: LNCaP cells were plated at 1,000 cells per well. […] ISIS 549148 was included as a negative control. […] After a treatment period of 5 days, the proliferative capacity of the cancer cells was measured with CellTiter 96® AQueous One or CellTiter-Glo® Solution Cell Proliferation kit (Promega), following the manufacturer's instructions. […]

C4-2B cells = test: C4-2B cell proliferation, ASO in combination with MDV3100 (Example 21); conditions: Homo sapiens, read-out: inhibited proliferation, MDV3100 with control oligonucleotide ISIS 549148
Method: C4-2B cells were plated at 1,000 cells per well. […] ISIS 549148 was included as a negative control. […] After a treatment period of 5 days, the proliferative capacity of the cancer cells was measured with CellTiter 96® AQueous One Solution Cell Proliferation kit (Promega), following the manufacturer's instructions. […]

Compound: 549372 (kA*kA*kG*dT*dT*dG*dT*dA*dG*dT*dA*dG*dT*k[5mC]*kG*k[5mC]) [compound 549372]
- Percent inhibition of KLK2 mRNA in C4-2B MR cells (KLK2 mRNA; 0.04 μM): 14%
- Percent inhibition of KLK2 mRNA in C4-2B MR cells (KLK2 mRNA; 0.20 μM): 16%
- Percent inhibition of KLK2 mRNA in C4-2B MR cells (KLK2 mRNA; 1.00 μM): 57%
- Percent inhibition of KLK2 mRNA in C4-2B MR cells (KLK2 mRNA; 5.00 μM): 87%
- Percent inhibition of C4-2B MR cell proliferation (C4-2B MR cells; 0.04 μM): 0%
- Percent inhibition of C4-2B MR cell proliferation (C4-2B MR cells; 0.20 μM): 4%
- Percent inhibition of C4-2B MR cell proliferation (C4-2B MR cells; 1.00 μM): 25%
- Percent inhibition of C4-2B MR cell proliferation (C4-2B MR cells; 5.00 μM): 43%

Compound: GTTGATTTAATGGTTG (all phosphorothioate, sugars by position not given here; further chemistry not fully specified) [ISIS 549458]
- AR target gene KLK2 mRNA levels (KLK2 mRNA; C4-2B MR cells, 0.04-5.00 μM): reduced target gene levels in a dose dependent manner more extensively than treatment with ISIS 554221
- proliferation of C4-2B MR cells (C4-2B MR cells; 0.04-5.00 μM): reduced proliferation of the cells in a dose dependent manner more extensively than treatment with ISIS 554221
- PSA mRNA levels in LMR20 cells [1]: reduced PSA levels and TMPRSS2 more extensively than the LNA gapmer ISIS 554221 or MDV3100

Compound: CNC(=O)c1ccc(N2C(=S)N(c3ccc(C#N)c(C(F)(F)F)c3)C(=O)C2(C)C)cc1F [MDV3100, 4-(3-(4-cyano-3-(trifluoromethyl)phenyl)-5,5-dimethyl-4-oxo-2-thioxoimidazolidin-1-yl)-2-fluoro-N-methylbenzamide, reference compound]
- Percent expression of AR compared to the control group in 8 hours (AR mRNA [2]; 0.04 μM): 99%
- Percent expression of AR compared to the control group in 24 hours (AR mRNA [2]; 0.04 μM): 88%
- Percent expression of AR compared to the control group in 48 hours (AR mRNA [2]; 0.04 μM): 94%
- Percent expression of AR compared to the control group in 8 hours (AR mRNA [2]; 0.2 μM): 100%
- Percent expression of AR compared to the control group in 24 hours (AR mRNA [2]; 0.2 μM): 99%
- Percent expression of AR compared to the control group in 48 hours (AR mRNA [2]; 0.2 μM): 94%
- Percent expression of AR compared to the control group in 8 hours (AR mRNA [2]; 1 μM): 92%
- Percent expression of AR compared to the control group in 24 hours (AR mRNA [2]; 1 μM): 96%
- Percent expression of AR compared to the control group in 48 hours (AR mRNA [2]; 1 μM): 113%
- Percent expression of AR compared to the control group in 24 hours (AR mRNA [2]; 5.0 μM): 84%
- Percent expression of AR compared to the control group in 48 hours (AR mRNA [2]; 5.0 μM): 126%
- AR expression (AR mRNA [2]; C4-2B cells, 8, 24 and 48 hours): increased AR expression at the 48 hour time-point
- Percent of gene expression, AR V7 variant (AR V7 variant mRNA; CSS + DHT medium, 0.04 μM): 16%
- Percent of gene expression, AR V7 variant (AR V7 variant mRNA; CSS + DHT medium, 0.2 μM): 17%
- Percent of gene expression, AR V7 variant (AR V7 variant mRNA; CSS + DHT medium, 1.0 μM): 19%
- Percent of gene expression, AR V7 variant (AR V7 variant mRNA; CSS + DHT medium, 5.0 μM): 12%
- Percent of gene expression, AR V7 variant (AR V7 variant mRNA; complete medium, 0.04 μM): 106%
- Percent of gene expression, AR V7 variant (AR V7 variant mRNA; complete medium, 0.2 μM): 98%
- Percent of gene expression, AR V7 variant (AR V7 variant mRNA; complete medium, 1.0 μM): 87%
- Percent of gene expression, AR V7 variant (AR V7 variant mRNA; complete medium, 5.0 μM): 77%
- Percent inhibition of TMPRSS2 expression (TMPRSS2 mRNA; CSS + DHT medium, 0.04 μM): 0%
- Percent inhibition of TMPRSS2 expression (TMPRSS2 mRNA; CSS + DHT medium, 0.2 μM): 11%
- Percent inhibition of TMPRSS2 expression (TMPRSS2 mRNA; CSS + DHT medium, 1 μM): 48%
- Percent inhibition of TMPRSS2 expression (TMPRSS2 mRNA; CSS + DHT medium, 5.0 μM): 66%
- Percent inhibition of TMPRSS2 expression (TMPRSS2 mRNA; complete medium, 0.04 μM): 3%
- Percent inhibition of TMPRSS2 expression (TMPRSS2 mRNA; complete medium, 0.2 μM): 24%
- Percent inhibition of TMPRSS2 expression (TMPRSS2 mRNA; complete medium, 1 μM): 55%
- Percent inhibition of TMPRSS2 expression (TMPRSS2 mRNA; complete medium, 5.0 μM): 71%
- PSA mRNA levels (% baseline value) after treatment with DHT ([1]; ASO 0.04 μM): 124 % baseline value
- PSA mRNA levels (% baseline value) after treatment with DHT ([1]; ASO 0.20 μM): 108 % baseline value
- PSA mRNA levels (% baseline value) after treatment with DHT ([1]; ASO 1.0 μM): 95 % baseline value
- PSA mRNA levels (% baseline value) after treatment with DHT ([1]; ASO 5.0 μM): 95 % baseline value
- PSA mRNA levels (% baseline value) after treatment with R1881 ([1]; ASO 0.04 μM): 84 % baseline value
- PSA mRNA levels (% baseline value) after treatment with R1881 ([1]; ASO 0.20 μM): 101 % baseline value
- PSA mRNA levels (% baseline value) after treatment with R1881 ([1]; ASO 1.0 μM): 92 % baseline value
- PSA mRNA levels (% baseline value) after treatment with R1881 ([1]; ASO 5.0 μM): 87 % baseline value
- PSA mRNA levels (% baseline value) of cells without AR agonist treatment ([1]; ASO 0.04 μM): 98 % baseline value
- PSA mRNA levels (% baseline value) of cells without AR agonist treatment ([1]; ASO 0.20 μM): 93 % baseline value
- PSA mRNA levels (% baseline value) of cells without AR agonist treatment ([1]; ASO 1.0 μM): 90 % baseline value
- PSA mRNA levels (% baseline value) of cells without AR agonist treatment ([1]; ASO 5.0 μM): 113 % baseline value
- PSA mRNA levels in LMR20 cells [1]: did not reduce either PSA or TMPRSS2 mRNA levels
- Percent expression of AR (AR mRNA [3]; CSS + DHT medium, 0.04 μM): 112%
- Percent expression of AR (AR mRNA [3]; CSS + DHT medium, 0.2 μM): 144%
- Percent expression of AR (AR mRNA [3]; CSS + DHT medium, 1 μM): 165%
- Percent expression of AR (AR mRNA [3]; CSS + DHT medium, 5.0 μM): 173%
- AR expression (AR mRNA [3]; CSS+DHT medium): increased AR expression in the cells
- Percent expression of AR (AR mRNA [3]; complete medium, 0.04 μM): 108%
- Percent expression of AR (AR mRNA [3]; complete medium, 0.2 μM): 121%
- Percent expression of AR (AR mRNA [3]; complete medium, 1 μM): 157%
- Percent expression of AR (AR mRNA [3]; complete medium, 5.0 μM): 182%
- AR expression (AR mRNA [3]; complete medium): increased AR expression in the cells
- inhibition at 0.08 µM (LNCaP cells): 7%
- inhibition at 0.08 µM (C4-2B cells): 0%
- inhibition at 0.4 µM (C4-2B cells): 6%

Compound: 549458 (kG*kT*kT*dG*dA*dT*dT*dT*dA*dA*dT*dG*dG*kT*kT*kG) [compound 549458]
- Percent inhibition of KLK2 mRNA in C4-2B MR cells (KLK2 mRNA; 0.04 μM): 35%
- Percent inhibition of KLK2 mRNA in C4-2B MR cells (KLK2 mRNA; 0.20 μM): 47%
- Percent inhibition of KLK2 mRNA in C4-2B MR cells (KLK2 mRNA; 1.00 μM): 87%
- Percent inhibition of KLK2 mRNA in C4-2B MR cells (KLK2 mRNA; 5.00 μM): 93%
- Percent inhibition of C4-2B MR cell proliferation (C4-2B MR cells; 0.04 μM): 8%
- Percent inhibition of C4-2B MR cell proliferation (C4-2B MR cells; 0.20 μM): 16%
- Percent inhibition of C4-2B MR cell proliferation (C4-2B MR cells; 1.00 μM): 41%
- Percent inhibition of C4-2B MR cell proliferation (C4-2B MR cells; 5.00 μM): 56%
- PSA mRNA levels (% baseline value) after treatment with DHT ([1]; ASO 0.04 μM): 93 % baseline value
- PSA mRNA levels (% baseline value) after treatment with DHT ([1]; ASO 0.20 μM): 71 % baseline value
- PSA mRNA levels (% baseline value) after treatment with DHT ([1]; ASO 1.0 μM): 47 % baseline value
- PSA mRNA levels (% baseline value) after treatment with DHT ([1]; ASO 5.0 μM): 47 % baseline value
- PSA mRNA levels (% baseline value) after treatment with R1881 ([1]; ASO 0.04 μM): 93 % baseline value
- PSA mRNA levels (% baseline value) after treatment with R1881 ([1]; ASO 0.20 μM): 67 % baseline value
- PSA mRNA levels (% baseline value) after treatment with R1881 ([1]; ASO 1.0 μM): 50 % baseline value
- PSA mRNA levels (% baseline value) after treatment with R1881 ([1]; ASO 5.0 μM): 44 % baseline value
- PSA mRNA levels (% baseline value) of cells without AR agonist treatment ([1]; ASO 0.04 μM): 135 % baseline value
- PSA mRNA levels (% baseline value) of cells without AR agonist treatment ([1]; ASO 0.20 μM): 85 % baseline value
- PSA mRNA levels (% baseline value) of cells without AR agonist treatment ([1]; ASO 1.0 μM): 50 % baseline value
- PSA mRNA levels (% baseline value) of cells without AR agonist treatment ([1]; ASO 5.0 μM): 72 % baseline value
